Consider 14 compounds from patent US4900727A, “4H-1-benzopyran-4-one compounds which have anti-inflamatory or immunodulating action” (Hoechst Aktiengesellschaft, priority 1986, dated 1990).

Each structure is given as a SMILES string. Where a name gives a salt, the structure may show the parent alone. Read-outs that look alike come from different tables or passages of the source.

Assay [1] relates to carrageenin-induced paw edema in rats. Briefly: Systemic anti-inflammatory action on carrageenin-induced paw edema in rats. The class given is in vivo, male Charles Foster rats. The conditions noted are these: decrease in paw volume, 3 and 6 hours after carrageenin, from dose/response curve. How it is done: Male Charles Foster rats (120-150 g) were fasted for 18 hours, with water ad libitum. The test compound dissolved in distilled water was administered orally. The control group received distilled water. 0/05 ml of 0.5% carrageenin suspension was injected subcutaneously into the plantar region of the left hind paw. Using a Maclab differential volume meter, the paw volume was determined before the carrageenin injection and 3 and 6 hours after the injection. The percentage decrease in paw volume was calculated by the following equation: [formula] The ED50 value was calculated from the dose/response curve. Six animals were used for each group. The results with representative compounds according to the invention and their salts are listed in Table 4, the substituents relating to the following formula Ia: [drawing 11]
In general terms: Carrageenan injected into the paw causes an acute inflammation.

Assay [2] deals with reverse passive Arthus reaction (RPA) in rats. Briefly: Reverse passive Arthus reaction (RPA) in rats. The class given is in vivo, Charles Foster rats of both sexes. The conditions noted are these: one hour before RPA, edema vs untreated control; for % inhibition: hydrochloride. How it is done:
Charles Foster rats of both sexes, weighing 150-180 g, were sorted into groups of six animals each. 24 hours before the initiation of the RPA, the rats were shaved from the mid-dorsal region and fasted overnight. The test compounds were administered orally one hour before inducing the Arthus reaction. The RPA reaction was induced by intradermal injection of 0.1 ml of appropriately diluted rabbit anti-BSA serum. Immediately after the intradermal exposure, each rat received 0.5 ml of 0.4% bovine serum albumin intraveneously. Four hours after the intradermal challenge, each group of animals was killed by cervical dislocation. The full thickness of the skin was removed from the back of each animal, and a 12 mm diameter disk was punched out with a metal punch from the site of the antiserum injection. The wet weight of each skin site was determined as soon as possible. The edema caused by the RPA was measured as the difference (expressed in mg) between the wet weight of the site injected with antibody and that injected with normal rabbit serum. The results are expressed as the percentage inhibition or potentiation of the edema by the compound as compared with the edema induced in the untreated control animals.

The mark [3] stands for this setting: Rattus norvegicus, po, read-out: ED50.
Setting [4] is: Rattus norvegicus, po, 4 h, dose 1.25 mg/kg p.o.
[5] abbreviates: Rattus norvegicus, po, 4 h, dose 2.5 mg/kg p.o.
Setting [6] is: Rattus norvegicus, po, 4 h, dose 5.0 mg/kg p.o.
Where [7] appears, read: Rattus norvegicus, po, 4 h, dose 10.0 mg/kg p.o.
Setting [8] is: Rattus norvegicus, po, 4 h, dose 20.0 mg/kg p.o.

As a reminder, the ED50 is the dose at which the effect has come halfway, by size or by number of responders. What is called inhibition in vivo is the percentage by which the read-out fell short of the control. On to `CCc1cc(=O)c2c(O)cc(O)c(C3CCN(C)CC3O)c2o1` (mixture of isomers) [(±) C2 H5 H CH3 HCl.1.5 H2 O, cis-5,7-Dihydroxy-2-ethyl-8-[4'-(3'-hydroxy-1'-methyl)-piperidinyl]-4H-1-benzopyran-4-one hydrochloride], for which the ED50 in assay [1] (setting [3]) was determined as 10.5 mg/kg. Moreover, the inhibition in vivo at 1.25 mg/kg in assay [2] (setting [4]) amounted to 16%. Besides, in assay [2] (setting [5]), the inhibition in vivo at 2.5 mg/kg is 34.3%. The inhibition in vivo at 5 mg/kg in assay [2] (setting [6]) turned out to be 41.6%. In addition, the inhibition in vivo at 10 mg/kg in assay [2] (setting [7]) was 43.6%. Further, the inhibition in vivo at 20 mg/kg in assay [2] (setting [8]) is 77.1%.

As to `CCCc1cc(=O)c2c(O)cc(O)c(C3CCN(C)CC3O)c2o1` (mixture of isomers) [(±) n-C3 H7 H CH3 HCl.H2 O, cis-5,7-Dihydroxy-2-n-propyl-8-[4'-(3'-hydroxy-1'-methyl)-piperidinyl]-4H-1-benzopyran-4-one hydrochloride], the ED50 in assay [1] (setting [3]) stood at 6.8 mg/kg. Also, in assay [2] (setting [4]), the inhibition in vivo at 1.25 mg/kg amounted to 26%. Besides, the inhibition in vivo at 2.5 mg/kg in assay [2] (setting [5]) was found to be 32%. Moreover, the inhibition in vivo at 5 mg/kg in assay [2] (setting [6]) was found to be 44%. Moreover, the inhibition in vivo at 10 mg/kg in assay [2] (setting [7]) came to 55%. Also, in assay [2] (setting [8]), the inhibition in vivo at 20 mg/kg was 65%.

The compound `CN1CC[C@H](c2c(O)cc(O)c3c(=O)cc(-c4ccc(N)cc4)oc23)[C@H](O)C1` (racemic) [(±) 4-Aminophenyl H H 2HCl, 2 H2 O, cis-(±)-2-(4-aminophenyl)-5,7-dihydroxy-8-[4'-(3'-hydroxy-1'-methyl)-piperidinyl]-4H-1-benzopyran-4-one] came in with an ED50 in assay [1] (p.o.) of 7.4 mg/kg.

Compound `CN1CC[C@H](c2c(O)cc(O)c3c(=O)cc(-c4ccc(Cl)cc4)oc23)[C@H](O)C1` (racemic) [(±) 4-chlorophenyl H H HCl, 1.5 H2 O, cis-(±)-2-(4-chlorophenyl)-5,7-dihydroxy-8-[4'-(3'-hydroxy-1'-methyl)-piperidinyl]-4H-1-benzopyran-4-one] yielded an ED50 in assay [1] (p.o.) of 7.0 mg/kg.

For the compound `CN1CC[C@H](c2c(O)cc(O)c3c(=O)cc(-c4ccccn4)oc23)[C@H](O)C1` (relative stereo) [(±) 2-Pyridyl H CH3 HCl.1.5 H2 O, cis-(±)-5,7-dihydroxy-2-(2-pyridyl)-8-[4'-(3'-hydroxy-1'-methyl)-piperidinyl]-4H-1-benzopyran-4-one], the ED50 in assay [1] (setting [3]) worked out at 5.7 mg/kg. Moreover, the inhibition in vivo at 1.25 mg/kg in assay [2] (setting [4]) was determined as 0%. Besides, in assay [2] (setting [5]), the inhibition in vivo at 2.5 mg/kg worked out at 12%. In addition, the inhibition in vivo at 5 mg/kg in assay [2] (setting [6]) worked out at 43%. Further, the inhibition in vivo at 10 mg/kg in assay [2] (setting [7]) is 90%. In assay [2] (setting [8]), the inhibition in vivo at 20 mg/kg amounted to 90%.

As to `Cc1cc(=O)c2c(O)cc(O)c([C@H]3CCN(C)C[C@H]3O)c2o1` (relative stereo) [(±) CH3 H CH3 HCl, cis-5,7-Dihydroxy-2-methyl-8-[4'-(3'-hydroxy-1'-methyl)-piperidinyl]-4H-1-benzopyran-4-one hydrochloride], the ED50 in assay [1] (setting [3]) was 12.5 mg/kg. Further, the inhibition in vivo at 1.25 mg/kg in assay [2] (setting [4]) turned out to be 28.8%. Further, the inhibition in vivo at 2.5 mg/kg in assay [2] (setting [5]) is 31.8%. Besides, the inhibition in vivo at 5 mg/kg in assay [2] (setting [6]) was 29.8%. Moreover, in assay [2] (setting [7]), the inhibition in vivo at 10 mg/kg came to 35.8%. Besides, in assay [2] (setting [8]), the inhibition in vivo at 20 mg/kg came out at 39.2%.

`CN1CC[C@H](c2c(O)cc(O)c3c(=O)cc(-c4ccccc4)oc23)[C@H](O)C1` (relative stereo) [(±) Phenyl H CH3 HCl.2H2 O, cis-(±)-5,7-dihydroxy-2-phenyl-8-[4'-(3'-hydroxy-1'-methyl)-piperidinyl]-4H-1-benzopyran-4-one]: the ED50 in assay [1] (setting [3]) was 5.7 mg/kg. The inhibition in vivo at 1.25 mg/kg in assay [2] (setting [4]) was 57.5%. Further, in assay [2] (setting [5]), the inhibition in vivo at 2.5 mg/kg came out at 55.6%. Also, the inhibition in vivo at 5 mg/kg in assay [2] (setting [6]) turned out to be 68.1%. Moreover, the inhibition in vivo at 10 mg/kg in assay [2] (setting [7]) was 90.6%. The inhibition in vivo at 20 mg/kg in assay [2] (setting [8]) came out at 95.7%.

For the compound `CN1CC[C@H](c2c(O)cc(O)c3c(=O)cc(-c4ccccc4Cl)oc23)[C@H](O)C1` (relative stereo) [(±) o-Chlorophenyl H CH3 HCl.H2 O, cis-(±)-2-(2-chlorophenyl)-5,7-dihydroxy-8-[4'-3'-hydroxy-1'-methyl)-piperidinyl]-4H-benzopyran-4-one], the ED50 in assay [1] (setting [3]) worked out at 2.7 mg/kg. Further, the inhibition in vivo at 1 mg/kg in assay [2] (Rattus norvegicus, po, 4 h, dose 1.0 mg/kg p.o.) turned out to be 37%. Further, the inhibition in vivo at 2 mg/kg in assay [2] (Rattus norvegicus, po, 4 h, dose 2.0 mg/kg p.o.) stood at 60%. For the same compound, in assay [2] (Rattus norvegicus, po, 4 h, dose 4.0 mg/kg p.o.), the inhibition in vivo at 4 mg/kg was 80%.

For the compound `CN1CC[C@H](c2c(O)cc(O)c3c(=O)cc(-c4ccccc4F)oc23)[C@H](O)C1` (relative stereo) [(±) o-Fluorophenyl H CH3 HCl.2H2 O, cis-(±)-5,7-dihydroxyl-2-(2-fluorophenyl)-8-[4'-(3'-hydroxy-1'-methyl)-piperidinyl]-4H-1-benzopyran-4-one], the ED50 in assay [1] (setting [3]) was 7.6 mg/kg. For the same compound, the inhibition in vivo at 1.25 mg/kg in assay [2] (setting [4]) is 0%. In addition, in assay [2] (setting [5]), the inhibition in vivo at 2.5 mg/kg was determined as 11.5%. Besides, the inhibition in vivo at 5 mg/kg in assay [2] (setting [6]) was 52.7%.

In the case of `CN1CC[C@H](c2c(O)cc(O)c3c(=O)cc(-c4ccc(F)cc4)oc23)[C@H](O)C1` (relative stereo) [(±) p-Fluorophenyl H CH3 HCl.H2 O, cis-(±)-5,7-dihydroxy-2-(4-fluorophenyl)-8-[4'-(3'-hydroxy-1'-methyl)-piperidinyl]-4H-1-benzopyran-4-one], the ED50 in assay [1] (setting [3]) was 7.4 mg/kg. In addition, in assay [2] (setting [4]), the inhibition in vivo at 1.25 mg/kg stood at 24.4%. In assay [2] (setting [5]), the inhibition in vivo at 2.5 mg/kg amounted to 37.4%. Moreover, in assay [2] (setting [6]), the inhibition in vivo at 5 mg/kg came out at 61.5%. Moreover, the inhibition in vivo at 10 mg/kg in assay [2] (setting [7]) was determined as 90%. The inhibition in vivo at 20 mg/kg in assay [2] (setting [8]) stood at 86.2%.

In the case of `CN1CC[C@H](c2c(O)cc(O)c3c(=O)cc(-c4ccc(Cl)cc4Cl)oc23)[C@H](O)C1` (relative stereo) [cis-(±)-2-(2,4-dichlorophenyl)-5,7-dihydroxy-8-[4'-(3'-hydroxy-1'-methyl)-piperidinyl]-4H-1-benzopyran-4-one], in assay [1] (setting [3]), the ED50 is 5.7 mg/kg. Also, the inhibition in vivo at 1.25 mg/kg in assay [2] (setting [4]) stood at 0%. Moreover, the inhibition in vivo at 2.5 mg/kg in assay [2] (setting [5]) is 41.7%. The inhibition in vivo at 5 mg/kg in assay [2] (setting [6]) came out at 57.2%. Besides, in assay [2] (setting [7]), the inhibition in vivo at 10 mg/kg worked out at 49.5%. Moreover, the inhibition in vivo at 20 mg/kg in assay [2] (setting [8]) stood at 76.1%.

Broadly, the % inhibition is the percentage by which the read-out fell short of the control. With `Cc1cc(=O)c2c(O)cc(O)c([C@H]3CCN(C)C[C@H]3O)c2o1` (single isomer, unassigned) [(+) CH3 H CH3 HCl, (+)-cis-5,7-Dihydroxy-2-methyl-8-[4'-(3'-hydroxy-1'-methyl)-piperidinyl]-4H-1-benzopyran-4-one hydrochloride], the ED50 in assay [1] (setting [3]) came out at 9.4 mg/kg. Moreover, in assay [2] (setting [4]), the inhibition in vivo at 1.25 mg/kg came out at 40.5%. Besides, in assay [2] (setting [5]), the inhibition in vivo at 2.5 mg/kg was 48.8%. Moreover, the inhibition in vivo at 5 mg/kg in assay [2] (setting [6]) was determined as 57.1%. Besides, the inhibition in vivo at 10 mg/kg in assay [2] (setting [7]) came to 50.4%. Besides, the “% inhibition” value in assay [2] (dose 20.0 mg/kg p.o., 20 mg/kg) was found to be 43.24%.

As for `CN1CC[C@H](c2c(O)cc(O)c3c(=O)cc(-c4ccccc4Cl)oc23)[C@H](O)C1` (single isomer, unassigned) [(-) 2-Chlorophenyl H CH3 HCl.1,5 H2 O, cis-(-)-2-(2-chlorophenyl)-5,7-dihydroxy-8-[4'-(3'-hydroxy-1'-methyl)-piperidinyl]-4H-1-benzopyran-4-one], the ED50 in assay [1] (setting [3]) was found to be 2.4 mg/kg. For the same compound, the inhibition in vivo at 1.25 mg/kg in assay [2] (setting [4]) is 34%. In addition, in assay [2] (setting [5]), the inhibition in vivo at 2.5 mg/kg amounted to 48.8%. Besides, in assay [2] (setting [6]), the inhibition in vivo at 5 mg/kg turned out to be 70%. In addition, the inhibition in vivo at 10 mg/kg in assay [2] (setting [7]) was 98.8%.

In assay [1] (p.o., hydrochloride), `Cc1cc(=O)c2c(O)cc(O)c([C@H]3CCN(C)C[C@H]3O)c2o1` (single isomer, unassigned) [(-) CH3 H CH3 HCl, (-)-cis-5,7-Dihydroxy-2-methyl-8-[4'-(3'-hydroxy-1'-methyl)-piperidinyl]-4H-1-benzopyran-4-one hydrochloride] returned an ED50 of 9.0 mg/kg. Further, the “% inhibition” value in assay [2] (dose 1.25 mg/kg p.o., 1.25 mg/kg) is given as 40.31%; in assay [2] (dose 2.5 mg/kg p.o., 2.5 mg/kg), 39.11%; in assay [2] (dose 5.0 mg/kg p.o., 5 mg/kg), 40.13%; in assay [2] (dose 10.0 mg/kg p.o., 10 mg/kg), 45.17%; in assay [2] (dose 20.0 mg/kg p.o., 20 mg/kg) it was 64.73%.
